Data from patent publication US12570687B2, “Triterpenoid compounds, pharmaceutical compositions thereof, and their use for treating a nuclear receptor subfamily 4 group a member 1-mediated disease” (NUCMITO PHARMACEUTICALS COMPANY LIMITED, priority 2019, dated 2026).

Experiments:
Assay type in all cases: cell-based
HeLa (ovarian cancer) = assay: MTT antiproliferative assay, HeLa; conditions: Homo sapiens, 48 or 72 h, read-out: inhibition of cell growth, HELA
Procedure: (§1) The antiproliferative activity of a test compound was determined in cell lines: MDA-MB-231 (breast cancer), HepG2 (liver cancer), SW620 (colon cancer), A375 (malignant melanoma), A431 (epidermoid carcinoma), A549 (lung adenocarcinoma), and HeLa ([…]). MDA-MB-231, HepG2, SW480, SW620, A375, and A431 cells were cultured in Dulbecco's modified Eagle's medium (DMEM) containing 10% fetal bovine serum (FBS). HeLa cells were cultured in MEM/EBSS (MEM) containing 10% FBS. A549 cells were maintained in Kaighn's modification of Ham's F-12 medium containing 10% FBS. The colorimetric MTT (3-(4,5-dimethylthiazol-2-yl)-2,5-diphenyltetrazolium bromide) assay was used to measure the cell viability of different cells following treatment with the test compound.
(§2) Briefly cells were seeded in a 96 well plate at a density of 2,000-5,000 cells/well. Following attachment, the cells were treated with the test compound in media at various concentrations ranging from 0.137 to 100 μM or at a single concentration of 10 μM. After the cells were incubated at 37° C. for 48 or 72 h, MTT (20 μL, 5 mg/mL in PBS) was added to each well and the cells were incubated for another 4 h at 37° C. The supernatant was removed carefully and 150 μL of DMSO was added to each well to dissolve the MTT formazan crystals. The plate was shaken for 15-20 min and the absorbance value of each well was determined using a multi-well plate reader at 490 nm. The wells treated with DMSO were taken as a vehicle control. Data were also obtained similarly for all the replicates and the percentage viability was determined with respect to the DMSO-treated cells. The results are summarized in Table 1 below, wherein A represents no less than 80% inhibition of cell growth at 10 μM; B represents no less than 50% but less than 80% inhibition of cell growth at 10 μM; C represents no less than 30% but less than 50% inhibition of cell growth at 10 μM; and D represents less than 30% inhibition of cell growth at 10 μM.

SW620 (colon cancer) = assay: MTT antiproliferative assay, SW620; conditions: Homo sapiens, SW-620, SW620, 10 μM, 48 or 72 h, read-out: inhibition of cell growth, SW620
Procedure: as §1, §2

[1] = test system: A549 (lung adenocarcinoma); assay: MTT antiproliferative assay, A549; conditions: Homo sapiens, A549, 10 μM, 48 or 72 h, read-out: inhibition of cell growth, A549
Procedure: as §1, §2

HepG2 (liver cancer) = assay: MTT antiproliferative assay, HepG2; conditions: Homo sapiens, HepG2, 10 μM, 48 or 72 h, read-out: inhibition of cell growth, HepG2
Procedure: as §1, §2

[2] = test system: MDA-MB-231 (breast cancer); assay: MTT antiproliferative assay, MDA-MB-231; conditions: Homo sapiens, MDA-MB-231, 10 μM, 48 or 72 h, read-out: inhibition of cell growth, MDA-MB-231
Procedure: as §1, §2

[3] = test system: A431 (epidermoid carcinoma); assay: MTT antiproliferative assay, A431; conditions: Homo sapiens, A-431, A431, 10 μM, 48 or 72 h, read-out: inhibition of cell growth, A431
Procedure: as §1, §2

[4] = test system: A375 (malignant melanoma); assay: MTT antiproliferative assay, A375; conditions: Homo sapiens, A-375, A375, 10 μM, 48 or 72 h, read-out: inhibition of cell growth, A375
Procedure: as §1, §2

Structure (SMILES) | inhibition at 10 µM (HeLa (ovarian cancer)) [%] | inhibition at 10 µM (SW620 (colon cancer)) [%] | inhibition at 10 µM [1] [%] | inhibition at 10 µM (HepG2 (liver cancer)) [%] | inhibition at 10 µM [2] [%] | inhibition at 10 µM [3] [%] | inhibition at 10 µM [4] [%]
[2H]C([2H])([2H])O[C@]1(C)C(=O)C(=O)C=C2C1=CC=C1[C@@]2(C)CC[C@@]2(C)[C@@H]3C[C@](C)(C(=O)O)CC[C@]3(C)CC[C@]12C [Compound A2, (2R,4aS,6aS,9S,12bR,14aS,14bR)-9-(methoxy-d3)-2,4a,6a,9,12b,14a-hexamethyl-10,11-dioxo-1,2,3,4,4a,5,6,6a,9,10,11,12b,13,14,14a,14b-hexadecahydropicene-2-carboxylic acid] | ≥ 80 | 30 to 50 | 30 to 50 | 50 to 80 | 50 to 80 | 50 to 80 | 30 to 50
CO[C@@]1(C)C2=CC=C3[C@@](C)(CC[C@@]4(C)[C@@H]5C[C@](C)(C(=O)N6CCOCC6)CC[C@]5(C)CC[C@]34C)C2=CC(=O)[C@@H]1O [Compound A56, (3R,4S,6bS,8aS,11R,12aR,12bS,14aR)-3-hydroxy-4-methoxy-4,6b,8a,11,12b,14a-hexamethyl-11-(morpholine-4-carbonyl)-4,6b,7,8,8a,9,10,11,12,12a,12b,13,14,14a-tetradecahydropicen-2(3H)-one] | 50 to 80 | ≥ 80 | ≥ 80 | ≥ 80 | 50 to 80 | ≥ 80 | 30 to 50
CO[C@@]1(C)C2=CC=C3[C@@](C)(CC[C@@]4(C)[C@@H]5C[C@](C)(C(N)=O)CC[C@]5(C)CC[C@]34C)C2=CC(=O)[C@@H]1O [Compound A55, (2R,4aS,6aS,9S,10R,12bR,14aS,14bR)-10-Hydroxy-9-methoxy-2,4a,6a,9,12b,14a-hexamethyl-11-oxo-1,2,3,4,4a,5,6,6a,9,10,11,12b,13,14,14a,14b-hexadecahydropicene-2-carboxamide] | 50 to 80 | ≥ 80 | 50 to 80 | ≥ 80 | 50 to 80 | ≥ 80 | 30 to 50
CO[C@]1(C)C(=O)C(=O)C=C2C1=CC=C1[C@@]2(C)CC[C@@]2(C)[C@@H]3C[C@](C)(C(=O)N(C)C)CC[C@]3(C)CC[C@]12C [Compound A13, (2R,4aS,6aS,9S,12bR,14aS,14bR)-9-methoxy-N,N,2,4a,6a,9,12b,14a-octamethyl-10,11-dioxo-1,2,3,4,4a,5,6,6a,9,10,11,12b,13,14,14a,14b-hexadecahydropicene-2-carboxamide] | ≥ 80 | ≥ 80 | ≥ 80 | ≥ 80 | ≥ 80 | ≥ 80 | 30 to 50
CO[C@]1(C)C(=O)C(=O)C=C2C1=CC=C1[C@@]2(C)CC[C@@]2(C)[C@@H]3C[C@](C)(C(=O)F)CC[C@]3(C)CC[C@]12C [Compound A8, (2R,4aS,6aS,9S,12bR,14aS,14bR)-9-methoxy-2,4a,6a,9,12b,14a-hexamethyl-10,11-dioxo-1,2,3,4,4a,5,6,6a,9,10,11,12b,13,14,14a,14b-hexadecahydropicene-2-carbonyl fluoride] | 50 to 80 | 50 to 80 | 50 to 80 | ≥ 80 | 50 to 80 | ≥ 80 | 30 to 50
CNC1(O)C(=O)C=C2C(=CC=C3[C@@]2(C)CC[C@@]2(C)[C@@H]4C[C@](C)(C(=O)OC)CC[C@]4(C)CC[C@]32C)[C@]1(C)OC (stereo partly drawn) [Compound A26, methyl (2R,4aS,6aS,9S,12bR,14aS,14bR)-10-hydroxy-9-methoxy-2,4a,6a,9,12b,14a-hexamethyl-10-(methylamino)-11-oxo-1,2,3,4,4a,5,6,6a,9,10,11,12b,13,14,14a,14b-hexadecahydropicene-2-carboxylate] | 30 to 50 | 30 to 50 | < 30 | 30 to 50 | 30 to 50 | 30 to 50 | 30 to 50
COC(=O)[C@]1(C)CC[C@]2(C)CC[C@]3(C)C4=CC=C5C(=CC(=O)/C(=C\C#N)C5(C)O)[C@]4(C)CC[C@@]3(C)[C@@H]2C1 (stereo partly drawn) [Compound A33, methyl (2R,4aS,6aS,10Z,12bR,14aS,14bR)-10-(cyanomethylidene)-9-hydroxy-2,4a,6a,9,12b,14a-hexamethyl-11-oxo-1,2,3,4,4a,5,6,6a,9,10,11,12b,13,14,14a,14b-hexadecahydropicene-2-carboxylate] | ≥ 80 | ≥ 80 | 30 to 50 | ≥ 80 | ≥ 80 | 50 to 80 | 50 to 80
CO[C@]1(C)C(=O)C(=O)C=C2C1=CC=C1[C@@]2(C)CC[C@@]2(C)[C@@H]3C[C@](C)(CO)CC[C@]3(C)CC[C@]12C [Compound A14, (4S,6bS,8aS,11R,12aR,12bS,14aR)-11-(hydroxymethyl)-4-methoxy-4,6b,8a,11,12b,14a-hexamethyl-4,6b,7,8,8a,9,10,11,12,12a,12b,13,14,14a-tetradecahydropicene-2,3-dione] | 30 to 50 | < 30 | < 30 | < 30 | < 30 | < 30 | < 30
CO[C@@]1(C)C2=CC=C3[C@@](C)(CC[C@@]4(C)[C@@H]5C[C@](C)(C#N)CC[C@]5(C)CC[C@]34C)C2=CC(=O)[C@@H]1O [Compound A62, (2R,4aS,6aS,9S,10R,12bR,14aS,14bR)-10-hydroxy-9-methoxy-2,4a,6a,9,12b,14a-hexamethyl-11-oxo-1,2,3,4,4a,5,6,6a,9,10,11,12b,13,14,14a,14b-hexadecahydropicene-2-carbonitrile] | < 30 | ≥ 80 | 30 to 50 | 30 to 50 | 30 to 50 | ≥ 80 | 30 to 50
CO[C@@]1(C)C2=CC=C3[C@@](C)(CC[C@@]4(C)[C@@H]5C[C@](C)(C=O)CC[C@]5(C)CC[C@]34C)C2=CC(=O)[C@@H]1O [Compound A19, (2R,4aS,6aS,9S,10R,12bR,14aS,14bR)-10-hydroxy-9-methoxy-2,4a,6a,9,12b,14a-hexamethyl-11-oxo-1,2,3,4,4a,5,6,6a,9,10,11,12b,13,14,14a,14b-hexadecahydropicene-2-carbaldehyde] | ≥ 80 | 50 to 80 | 50 to 80 | 50 to 80 | 50 to 80 | ≥ 80 | 30 to 50
COC(=O)[C@]1(C)CC[C@]2(C)CC[C@]3(C)C4=CC=C5C(=CC(=O)C(O)C5(C)O)[C@]4(C)CC[C@@]3(C)[C@@H]2C1 (stereo partly drawn) [Compound A35, methyl (2R,4aS,6aS,12bR,14aS,14bR)-9,10-dihydroxy-2,4a,6a,9,12b,14a-hexamethyl-11-oxo-1,2,3,4,4a,5,6,6a,9,10,11,12b,13,14,14a,14b-hexadecahydropicene-2-carboxylate] | ≥ 80 | ≥ 80 | ≥ 80 | ≥ 80 | ≥ 80 | ≥ 80 | 50 to 80
